Measured values reported in patent US20230391772A1, “METHODS AND COMPOSITIONS FOR TARGETED PROTEIN DEGRADATION” (Ranok Therapeutics (Hangzhou) Co. Ltd., priority 2020, published 2023).

Key:
KRAS(G12C) [1] = molecular target: T1, KRAS(G12C) (Homo sapiens, UniProt P01116, G12C); test: KRAS(G12C) Western blot protein degradation assay in LU65A cells; assay type: cell-based; design: LU65A human lung cancer cell line, which expresses KRAS(G12C); host or cells: LU65A; conditions: 6 hr
Outline: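 KRAS levels read by fluorescent Western blot (β-actin as reference) on BCA-normalized lysates. Exposure to a compound concentration range at 37 °C lasted 6 hr in LU65A and 48 hr in MIA PaCa-2; DC50 taken as half-maximal degradation concentration.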

[2] = system: MIA PaCa-2 human pancreatic carcinoma; test: MIA PaCa-2 CCK-8 proliferation assay; assay type: cell-based; conditions: Homo sapiens, MIA PaCa-2, 72 h, MIA PaCa-2 cells
Outline: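 MIA PaCa-2 (2 copies KRAS(G12C)), NCI-H358 and NCI-H23 (1 copy KRAS(G12C) each) were exposed to compound in 3-fold serial dilutions from 20 μM to 1.02 nM. Viability was read as CCK-8 absorbance, and % inhibition was computed against DMSO-treated cells, with cell-free DMSO medium as blank.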

HSP90a protein = molecular target: T2, HSP90a protein (Homo sapiens, UniProt P07900); test: HSP90α-binding fluorescent polarization (FP) assay, BODIPY-labeled RNK04010 probe; conditions: FP competition with RNK04010 (BODIPY-labeled), 5 nM, 300 min at 25° C.
T2 construct: purchased BPS Bioscience 50298
Outline: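 Compound dilutions (20 μM to 5.2 nM, 2.5-fold) are combined with 5 nM final labeled probe, and HSP90a N-terminal protein is added last. Plates are shaken briefly and held at 25° C for 120 min (FITC-geldanamycin) or 300 min (BODIPY-RNK04010), then FP is measured.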

KRAS(G12C) [3] = molecular target: T1, KRAS(G12C); test: KRAS(G12C)/SOS1 homogeneous time-resolved fluorescence (HTRF) assay; design: purchased Cisbio 63ADK000CB16PEG; conditions: absence of GTP, 4° C. for 3 hr, read-out: KRAS (G12C) binding
Outline: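 Three-hour incubation at 4 °C of 3-fold compound dilutions (lowest 1.02 nM) with KRAS(G12C), SOS1 and detection reagents, GTP absent. Disruption of the KRAS(G12C)/SOS1 complex detected by time-resolved fluorescence.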

T1 sequence (P01116 1-188 isoform P01116-2 G12C): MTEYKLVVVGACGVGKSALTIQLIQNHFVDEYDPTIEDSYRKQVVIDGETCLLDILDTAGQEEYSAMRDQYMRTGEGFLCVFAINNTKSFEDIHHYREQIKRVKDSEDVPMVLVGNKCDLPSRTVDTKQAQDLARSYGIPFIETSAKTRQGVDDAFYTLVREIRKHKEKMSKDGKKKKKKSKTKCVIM

Row | DC50 (KRAS(G12C) [1]) [nM] | EC50 [2] [nM] | IC50 (HSP90a protein) [nM] | IC50 (KRAS(G12C) [3]) [nM] | Compound
1 | > 1000 | 100 to 1000 | < 100 | 100 to 1000 | C=CC(=O)N1CCN(c2nc(OCCN3CCN(C(=O)C4CCN(Cc5ccc(-n6c(C(=O)NCC(F)(F)F)nnc6-c6cc(C(C)C)c(O)cc6O)cc5)CC4)CC3)nc3c2CCN(c2cccc4cccc(Cl)c24)C3)C[C@@H]1CC#N [Compound 206, (S)-4-(4-((4-(4-(2-((4-(4-acryloyl-3-(cyanomethyl)piperazin-1-yl)-7-(8-chloronaphthalen-1-yl)-5,6,7,8-tetrahydropyrido[3,4-d]pyrimidin-2-yl)oxy)ethyl)piperazine-1-carbonyl)piperidin-1-yl)methyl)phenyl)-5-(2,4-dihydroxy-5-isopropylphenyl)-N-(2,2,2-trifluoroethyl)-4H-1,2,4-triazole-3-carboxamide, trifluoroacetic acid]
2 | > 1000 | > 1000 | < 100 | 100 to 1000 | C=CC(=O)N1CCN(c2nc(OCC3CN(C(=O)C4CCN(Cc5ccc(-n6c(C(=O)NCC(F)(F)F)nnc6-c6cc(C)c(O)cc6O)cc5)CC4)C3)nc3c2CCN(c2cccc4cccc(Cl)c24)C3)C[C@@H]1CC#N [Compound 219, (S)-4-(4-((4-(3-(((4-(4-acryloyl-3-(cyanomethyl)piperazin-1-yl)-7-(8-chloronaphthalen-1-yl)-5,6,7,8-tetrahydropyrido[3,4-d]pyrimidin-2-yl)oxy)methyl)azetidine-1-carbonyl)piperidin-1-yl)methyl)phenyl)-5-(2,4-dihydroxy-5-methylphenyl)-N-(2,2,2-trifluoroethyl)-4H-1,2,4-triazole-3-carboxamide]
3 | 100 to 1000 | 100 to 1000 | < 100 | < 100 | C=CC(=O)N1CCN(c2nc(OCCN3CCN(Cc4ccc(-n5c(O)nnc5-c5cc(C(C)C)c(O)cc5O)cc4)CC3)nc3c2CCN(c2cccc4cccc(Cl)c24)C3)C[C@@H]1CC#N [Compound 351, 2-[(2S)-4-[7-(8-chloronaphthalen-1-yl)-2-{2-[4-({4-[3-(2,4-dihydroxy-5-isopropylphenyl)-5-hydroxy-1,2,4-triazol-4-yl]phenyl}methyl)piperazin-1-yl]ethoxy}-5H,6-H,8H-pyrido[3,4-d]pyrimidin-4-yl]-1-(prop-2-enoyl)piperazin-2-yl]acetonitrile]
4 | 100 to 1000 | 100 to 1000 | < 100 | < 100 | C=CC(=O)N1CCN(c2nc(OC[C@@H]3CC[C@H](CN4CCN(C(=O)C5CCN(Cc6ccc(-n7c(O)nnc7-c7cc(C)c(O)cc7O)cc6)CC5)CC4)N3C)nc3c2CCN(c2cccc4cccc(Cl)c24)C3)C[C@@H]1CC#N [Compound 319, 2-[(2S)-4-[7-(8-chloronaphthalen-1-yl)-2-{[(2S,5R)-5-({4-[1-({4-[3-(2,4-dihydroxy-5-methylphenyl)-5-hydroxy-1,2,4-triazol-4-yl]phenyl}methyl)piperidine-4-carbonyl]piperazin-1-yl}methyl)-1-methylpyrrolidin-2-yl]methoxy}-5H,6H,8H-pyrido [3,4-d]pyrimidin-4-yl]-1-(prop-2-enoyl)piperazin-2-yl]acetonitrile]
5 | 100 to 1000 | 100 to 1000 | < 100 | < 100 | C=CC(=O)N1CCN(c2nc(OC[C@@H]3C[C@H](N4CCC(C(=O)N5CCC6(CC5)CN(Cc5ccc(-n7c(O)nnc7-c7cc(C(C)C)c(O)cc7O)cc5)C6)CC4)CN3C)nc3c2CCN(c2cccc4cccc(Cl)c24)C3)C[C@@H]1CC#N [Compound 350, 2-[(2S)-4-[7-(8-chloronaphthalen-1-yl)-2-{[(2S,4S)-4-{4-[2-({4-[3-(2,4-dihydroxy-5-isopropylphenyl)-5-hydroxy-1,2,4-triazol-4-yl]phenyl}methyl)-2,7-diazaspiro [3.5]nonane-7-carbonyl]piperidin-1-yl}-1-methylpyrrolidin-2-yl]methoxy}-5H,6-H,8H-pyrido[3,4-d]pyrimidin-4-yl]-1-(prop-2-enoyl)piperazin-2-yl]acetonitrile]
